Patent US4145419A, “Novel imidazobenzoxazines” (Roussel Uclaf, priority 1976, dated 1979)
Where two headings read alike, the source gives them in different places.

Test system: passive cutaneous anaphylaxis
Experiment: Passive Cutaneous Anaphylaxis (PCA) in Rats
Type: in vivo
Details: Rattus norvegicus, dosed immediately prior to intravenous antigen challenge, read-out: ED50 (dose of drug giving 50% inhibition)
Text: Passive Cutaneous Anaphylaxis (PCA) in Rats
Cutaneous anaphylaxis can be induced in rats by intradermal (ID) sensitization with antiserum followed three days later by systemic challenge with antigen. Evans blue dye injected with the antigen is used as a marker to assess the severity of the local response. Anti-allergic drugs inhibit this reaction. This method has been described by OVARY (1962) "Passive Cutaneous Anaphylaxis in Allergology" Page 358-367 Ed. Brown: Pergamon Press:-male rats weighing 180-220 grams are used in groups of seven.
Preparation of Antigen for Sensitization (Alum precipitated ovalbumen)
1. Wash 120 grams of Al(OH)3 gel in 140 ml of saline (use of a macerater facilitates mixing).
2. Centrifuge at 3,000 r.p.m. for about 10 minutes.
3. Resuspend the precipitate with 300 ml of albumen egg powder (1.3 mg/ml) in saline and allow to stand for 30 minutes.
4. Centrifuge at 3,000 r.p.m. for 10 minutes.
5. Weigh the wet precipitate and to each gram weight add 1 ml of saline. Store in refrigerator (Quantity sufficient for 60 rats for a 3 day sensitization program).
Preparation of Antiserum (anti-ovalbumen)
1 ml of the alum precipitated ovalbumen was injected subcutaneously into rats weighing 180-200 grams on days 0,2,4. The rats were bled on day 14 either by cardiac puncture or via the dorsal abdominal aorta. Equal quantities of serum from each animal were pooled and thoroughly mixed and 2 ml aliquots were stored at -20° C. in plastic tubes.
The antiserum for sensitization was diluted so that an ID injection of 0.1 ml into control animals would give an average score of a single spot of between 2.0-3.5 using a 4 point scoring system.
(A) SENSITIZATION: The rats were anaesthetized with Nembutal (40-60 mg/kg i.p.) and were then sensitized by four ID injections (0.1 ml each) on their shaved backs. The animals were then left for a period of three days to develop sensitization.
(B) CHALLENGE: The sensitized rats were dosed orally or intraveneously with the drug immediately prior to intraveneous challage via the superficial penile vein with 1 ml of an antigen/Evans blue mixture (1 mg albumen egg powder in 0.5 ml saline plus 0.5 ml of 1% Evans blue). The injection were speeded up by using an automatic 1 ml self-filling glass syringe. The "challenged" rats were killed after 30 minutes, (usually pithed) and their skin on the dorsal surface was removed. The degree and area of blueing, proportional to the anaphylactic reaction was assessed on a four point scoring system.
1. Total scores for sites 1,2,3 and 4 = X
2. mean value of X for each group = X
3. x t = X for test group X c = X for control group
4. % inhibition = X c - X t/X c X 100/1
5. ed50 = dose of drug giving 50% inhibition.
ED50 values for the compounds tested in the passive cutaneous anaphylaxis screen (in rats) are as follows: […]

Row | Structure (SMILES) | ED50 (I.V.) | ED50 (po, P.O.)
1 | O=C(O)c1cn2c(n1)COc1ccc([N+](=O)[O-])cc1-2 [Example 10, 8-nitro-4H-imidazo-[2,1-c][1,4]-benzoxazine-2-carboxylic acid] | 2.2 mg/kg | –
2 | CC(=O)Nc1ccc2c(c1)-n1cc(C(=O)O)nc1CO2 [Example 11, 8-acetamido-4H-imidazo-[2,1-c][1,4]-benzoxazine-2-carboxylic acid] | 0.073 mg/kg | > 10 mg/kg
3 | O=C(O)C(=O)Nc1ccc2c(c1)-n1cc(C(=O)O)nc1CO2 [Example 12, 8-oxalamino-4H-imidazo-[2,1-c][1,4]-benzoxazine-2-carboxylic acid] | – | 3.85 mg/kg
4 | O=C(O)c1cn2c(n1)COc1ccccc1-2 [Example 2, 4H-imidazo-[2,1-c][1,4]-benzoxazine-2-carboxylic acid] | 1.95 mg/kg | 2.88 mg/kg
5 | COC(=O)c1cn2c(n1)COc1ccccc1-2 [Example 1, methyl 4H-imidazo-[2,1-c][1,4]-benzoxazine-2-carboxylate] | – | 10.8 mg/kg
6 | O=C(OCCN1CCOCC1)c1cn2c(n1)COc1ccccc1-2 [Example 5, 2-morpholinoethyl 4H-imidazo-[2,1-c][1,4]-benzoxazine-2-carboxylate] | 1.75 mg/kg | 10.7 mg/kg
